Reference: the NIST ThermoML archive (doi:10.1016/j.fluid.2008.02.021)
± gives the expanded uncertainty stated by the source.

Tests used:
[1] = excess molar enthalpy (molar enthalpy of mixing); xn = mol fraction of the nth substance listed; settings: Liquid, Flow calorimetry
[2] = for vapor or sublimation pressure: Liquid, Closed cell (Static) method; for Normal melting temperature: Crystal

OC1CCCCC1 [cyclohexanol] + O=C1CCCCC1
[1]
Settings	excess molar enthalpy [kcal/mol]
363.15 K, 1651 kPa, x2 = 0.051	0.065 ± 0.000884
363.15 K, 1651 kPa, x2 = 0.102	0.124 ± 0.00148
363.15 K, 1651 kPa, x2 = 0.153	0.175 ± 0.00198
363.15 K, 1651 kPa, x2 = 0.204	0.22 ± 0.00239
363.15 K, 1651 kPa, x2 = 0.254	0.255 ± 0.00287
363.15 K, 1651 kPa, x2 = 0.305	0.285 ± 0.00311
363.15 K, 1651 kPa, x2 = 0.355	0.307 ± 0.00335
363.15 K, 1651 kPa, x2 = 0.406	0.321 ± 0.00335
363.15 K, 1651 kPa, x2 = 0.456	0.33 ± 0.00359
363.15 K, 1651 kPa, x2 = 0.506	0.334 ± 0.00359
363.15 K, 1651 kPa, x2 = 0.555	0.328 ± 0.00359
363.15 K, 1651 kPa, x2 = 0.605	0.316 ± 0.00335
363.15 K, 1651 kPa, x2 = 0.655	0.299 ± 0.00311
363.15 K, 1651 kPa, x2 = 0.705	0.275 ± 0.00311
363.15 K, 1651 kPa, x2 = 0.754	0.244 ± 0.00263
363.15 K, 1651 kPa, x2 = 0.803	0.208 ± 0.00232
363.15 K, 1651 kPa, x2 = 0.853	0.164 ± 0.00189
363.15 K, 1651 kPa, x2 = 0.902	0.115 ± 0.00139
363.15 K, 1651 kPa, x2 = 0.951	0.0595 ± 0.000837
413.15 K, 1582 kPa, x2 = 0.051	0.0388 ± 0.000621
413.15 K, 1582 kPa, x2 = 0.102	0.0744 ± 0.00098
413.15 K, 1582 kPa, x2 = 0.153	0.106 ± 0.00129
413.15 K, 1582 kPa, x2 = 0.203	0.134 ± 0.00158
413.15 K, 1582 kPa, x2 = 0.254	0.157 ± 0.00182
413.15 K, 1582 kPa, x2 = 0.304	0.175 ± 0.00198
413.15 K, 1582 kPa, x2 = 0.355	0.19 ± 0.00213
413.15 K, 1582 kPa, x2 = 0.405	0.199 ± 0.00222
413.15 K, 1582 kPa, x2 = 0.455	0.204 ± 0.00227
413.15 K, 1582 kPa, x2 = 0.505	0.206 ± 0.00229
413.15 K, 1582 kPa, x2 = 0.555	0.202 ± 0.00227
413.15 K, 1582 kPa, x2 = 0.605	0.195 ± 0.0022
413.15 K, 1582 kPa, x2 = 0.655	0.183 ± 0.00215
413.15 K, 1582 kPa, x2 = 0.704	0.168 ± 0.00191
413.15 K, 1582 kPa, x2 = 0.754	0.148 ± 0.00172
413.15 K, 1582 kPa, x2 = 0.803	0.126 ± 0.00151
413.15 K, 1582 kPa, x2 = 0.853	0.0985 ± 0.0012
413.15 K, 1582 kPa, x2 = 0.902	0.0681 ± 0.000908
413.15 K, 1582 kPa, x2 = 0.951	0.035 ± 0.000598

CCCCCCO [hexan-1-ol]
[2]
Settings	vapor or sublimation pressure [kPa]
323.15 K	0.7226 ± 0.027
363.15 K	7.229 ± 0.049

Settings	Normal melting temperature [°C]
[2]	-44 ± 1

O=C1CCCCC1 [cyclohexanone]
[2]
Settings	Normal melting temperature [°C]	vapor or sublimation pressure [kPa]
323.15 K	–	2.23 ± 0.028
363.15 K	–	13.05 ± 0.059
visual observation	-27.2 ± 0.2	–

CCCCCCC(C)=O [2-octanone]
[2]
Settings	vapor or sublimation pressure [kPa]
323.15 K	0.8706 ± 0.021
363.15 K	6.397 ± 0.047

Settings	Normal melting temperature [°C]
[2]	-19.7 ± 0.3

OC1CCCCC1 [cyclohexanol]
[2]
Settings	Normal melting temperature [°C]	vapor or sublimation pressure [kPa]
323.15 K	–	0.7399 ± 0.016
363.15 K	–	6.882 ± 0.039
visual observation	24.1 ± 0.2	–

CCCCCCC(C)=O [2-octanone] + CCCCCCO
excess molar enthalpy [kcal/mol], [1], 1617 kPa
Settings	363.15 K	413.15 K
x2 = 0.062	0.0819 ± 0.00105	0.059 ± 0.000956
x2 = 0.122	0.152 ± 0.00177	0.112 ± 0.00136
x2 = 0.181	0.21 ± 0.00239	0.157 ± 0.00182
x2 = 0.238	0.257 ± 0.00287	0.194 ± 0.00217
x2 = 0.294	0.292 ± 0.00311	0.222 ± 0.00239
x2 = 0.349	0.319 ± 0.00335	0.244 ± 0.00263
x2 = 0.402	0.335 ± 0.00359	0.259 ± 0.00287
x2 = 0.455	0.344 ± 0.00359	0.268 ± 0.00287
x2 = 0.506	0.345 ± 0.00359	0.271 ± 0.00287
x2 = 0.556	–	0.269 ± 0.00287
x2 = 0.557	0.341 ± 0.00359	–
x2 = 0.605	0.327 ± 0.00359	0.26 ± 0.00287
x2 = 0.652	0.31 ± 0.00335	0.247 ± 0.00263
x2 = 0.699	0.287 ± 0.00311	0.229 ± 0.00263
x2 = 0.745	0.259 ± 0.00287	0.206 ± 0.00229
x2 = 0.79	0.227 ± 0.00263	0.181 ± 0.00206
x2 = 0.833	0.19 ± 0.00213	0.152 ± 0.00177
x2 = 0.876	0.148 ± 0.00172	0.12 ± 0.00143
x2 = 0.918	0.102 ± 0.00127	0.0838 ± 0.00108
x2 = 0.96	0.0525 ± 0.000765	0.0429 ± 0.000669
